Reference: ChEMBL document CHEMBL1921772, “Crassocolides N-P, three cembranoids from the Formosan soft coral Sarcophyton crassocaule” (Bioorg Med Chem Lett, 2011)
≈ marks a conversion by molar mass, not a printed value.

Experiments:
Assay type in all cases: functional, cell-based
KB = test: Cytotoxicity against human KB cells after 1 to 11 days by MTT assay
HeLa = test: Cytotoxicity against human HeLa cells after 1 to 11 days by MTT assay
Daoy = test: Cytotoxicity against human DaOY cells after 1 to 11 days by MTT assay

| Compound | IC50 (KB) [µg/mL] | IC50 (HeLa) [µg/mL] | IC50 (Daoy) [µg/mL] |
| --- | --- | --- | --- |
| C=C1C(=O)O[C@H]2/C=C(\C)CC/C=C(\C)CCC(=O)/C(C)=C\C[C@@H]12 [CRASSOCOLIDE O] | > 20 | > 20 | 4.5 (≈ 14.3 µM) |
| C=C1C(=O)O[C@H]2/C=C(\C)CC/C=C(\C)CC[C@H](OC(C)=O)/C(C)=C\C[C@@H]12 [CRASSOCOLIDE P] | > 20 | 10.8 (≈ 30.1 µM) | 1.9 (≈ 5.3 µM) |
| CO[C@@]12[C@H](COC(N)=O)C3=C(C(=O)C(C)=C(N)C3=O)N1C[C@@H]1N[C@@H]12 [MITOMYCIN] | 0.08 (≈ 0.239 µM) | 0.06 (≈ 0.179 µM) | 0.05 (≈ 0.15 µM) |
| C=C1C(=O)O[C@H]2/C=C(\C)CC/C=C(\C)CCC(=O)[C@]3(C)O[C@@H]3C[C@@H]12 [CRASSOCOLIDE N] | 4.7 (≈ 14.2 µM) | 4.7 (≈ 14.2 µM) | 2.8 (≈ 8.47 µM) |
